The results in this text go back to patent US9808505B2, “Suppression of malignant mesothelioma by overexpression or stimulation of endothelial protein C receptors (EPCR)” (BOARD OF REGENTS, THE UNIVERSITY OF TEXAS SYSTEM, priority 2013, dated 2017).

Assay type in all cases: cell-based, human
The subject of assay [1] is REN MPM cells. Description: Measurement of cytosolic Ca2+ release (Fluo-4 fluorescence microscopy). Particulars: peptide 50 μM (FIG. 1E). As to the method:
Fluorescence microscopy was used for measurement of cytosolic Ca^2+ release as described earlier (34). MPM cells were seeded in 8-well chambered cover slips (Nunc, Rochester, N.Y.) at a density of 10,000 cells/well. After 24 h, cells were washed and incubated with 4 μM Fluo-4/AM Ester (Molecular Probes, Inc, Eugene, Oreg.) for 1 h in buffer B in a humidified atmosphere of 37° C./5% CO2. The cells were then washed with buffer B, and a chambered cover slip was placed on the stage of an inverted microscope (Axio Observer Z1) encased in an incubation chamber that maintained 37° C./5% CO2. Live images of cell fluorescence were recorded by exciting the Fluo-4 probe with 488 nm light and monitoring 530 nm emission using Carl Zeiss LSM 510 Meta Confocal Laser Scanning system. After 15 sec of image acquisition, PAR1 agonist peptide […]; SEQ ID NO:10)) or PAR2 agonist peptide (SLIGRL; (SEQ ID NO:11)) was added to the cells at a final concentration of 50 μM and the recording was continued for an additional 165 sec. Results are represented as change in fluorescence intensity over time.

Assay [2] relates to REN MPM cells. Description: Cell proliferation assay (BrdU incorporation) in MPM cells. Particulars: for difference in cell proliferation between REN and REN(+EPCR): in vitro, presence or absence of ligand, FVIIa 10 nM, APC 20 nM, thrombin 10 nM, 24 h; for cell proliferation of REN cells in response to ligand (in words): wild-type REN cells in vitro, 10 nM ligand in SFM, 24 h (FIG. 8). As to the method:
Cell proliferation assay in MPM cells in the presence or absence of various ligands was performed using Apo-BrdU cell proliferation assay kit from Millipore (Temecula, Calif.) following the manufacturer's instructions. Briefly, MPM cells (7,500 cells/well) were seeded in 96-well plates in RPMI medium containing 10% FBS, and after 24 h the cells were washed once and maintained in serum-free medium (SFM). After 24 h, the cells were washed once with SFM and incubated with SFM or SFM containing FVIIa, APC, thrombin or serum (1%) for 24 h. Twenty μl of BrdU-labeling solution was added to each well 8 h prior to the completion of 24 h incubation with the test compound. The cells were fixed and processed for detection of BrdU incorporation by incubating the cells with an anti-BrdU antibody, followed by peroxidase-conjugated secondary antibody and then the substrate tetramethyl-benzidine with three washings in between each step. The color developed in the assay was measured as absorbance at 450 nm using the absorbance measured at 650 nm as a reference value in a microplate reader (Molecular Devices, Sunnyvale, Calif.).

The subject of assay [3] is REN MPM cells. Nature of the assay: Elaboration of proangiogenic factors on exposure to FVIIa. As to conditions: REN MPM cells in response to FVIIa. Here is the method: To assess whether TF promotes tumor growth in MPM through elaboration of proangiogenic factors by direct signaling (as observed in breast cancer cells (38, 39)), studies were conducted here to examine whether exposure of REN MPM cells to FVIIa increased production of proangiogenic factors in these cells. […] Thus, it seems unlikely that TF-FVIIa-PAR1-mediated cell signaling promotes MPM tumor growth through elaboration of proangiogenic factors as previously speculated for promotion of tumor growth in breast cancer (21).

As to SLIGRL [PAR2 agonist peptide], the “intracellular Ca2+ release” value in the assay with REN MPM cells [1] is “not”.
On to TFLLRNPNDK [PAR1 agonist peptide], for which the “intracellular Ca2+ release” value in the assay on REN MPM cells [1] is “induced intracellular Ca^2+ release”.
Regarding thrombin, the “thrombin-induced cell proliferation in PAR1 knock-down cells” value in the assay on REN MPM cells [2] (REN cells with PAR1 knock-down (REN-P1KD)) is given as “diminished”. In addition, in the assay on REN MPM cells [2], the “difference in cell proliferation between REN and REN(+EPCR)” value is “no measurable differences”; the “cell proliferation of REN cells in response to ligand (in words)” value is “modest increase”.

B1: FVIIa: Recombinant human FVIIa from Novo Nordisk; clotting factor that initiates coagulation upon binding to TF (protein)
chain: ANAFLEELRPGSLERECKEEQCSFEEAREIFKDAERTKLFWISYSDGDQCASSPCQNGGSCKDQLQSYICFCLPAFEGRNCETHKDDQLICVNENGGCEQYCSDHTGTKRSCRCHEGYSLLADGVSCTPTVEYPCGKIPILEKRNASKPQGRIVGGKVCPKGECPWQVLLLVNGAQLCGGTLINTIWVVSAAHCFDKIKNWRNLIAVLGEHDLSEHDGDEQSRRVAQVIIPSTYVPGTTNHDIALLRLHQPVVLTDHVVPLCLPERTFSERTLAFVRFSLVSGWGQLLDRGATALELMVLNVPRLMTQDCLQQSRKVGDSPNITEYMFCAGYSDGSKDSCKGDSGGPHATHYRGTWYLTGIVSWGQGCATVGHFGVYTRVSQYIEWLQKLMRSEPRPGVLLRAPFP
In the case of B1, in the assay on REN MPM cells [2] (REN cells with TF knock-down (REN-TFKD)), the “FVIIa-induced increase in cell proliferation in TF knock-down cells” value is “abrogated”. Also, in the assay on REN MPM cells [2], the “difference in cell proliferation between REN and REN(+EPCR)” value is given as “no measurable differences”; the “cell proliferation of REN cells in response to ligand (in words)” value is given as “modestly but consistently”. The “increase in rate of cell proliferation” value in the assay with REN MPM cells [2] (naïve REN MPM cells, addition of FVIIa) is listed as “about 70%”. The “elaboration of proangiogenic factors, including IL-8, CCN1 and CCN2” value with REN MPM cells [3] is “robust or reproducible elaboration”.
